“Also recorded” adds a separate entry of the source.
Columns and labels:
SARS‐CoV 3CL protease = SARS‐CoV 3CL protease (Severe acute respiratory syndrome coronavirus, UniProt P0C6X7); experiment: biochemical; assay type: biochemical
SARS‐CoV [1] = assay type: cell-based
SARS‐CoV [2] = assay type: cell-based; remark: listed apart in the source

Row | SMILES | inhibition pattern with respect to the substrate (SARS‐CoV 3CL protease) | inhibition of 3CL protease activity (SARS‐CoV 3CL protease) | Ki (SARS‐CoV 3CL protease) [nM] | also measured
1 | [O-]n1ccccc1=S.[O-]n1ccccc1=S.[Zn+2] [1‐Hydroxypyridine‐2‐thione zinc] | competitive | – | – | –
2 | [Co+2] [Co^2+] | – | did not inhibit | – | –
3 | [Cu+2] [Cu^2+] | – | effective | 4900 ± 1300 | –
4 | Oc1c(Cl)cc(Cl)c(Cl)c1Cc1c(O)c(Cl)cc(Cl)c1Cl [Hexachlorophene] | competitive | – | 13700 ± 400 | cytotoxicity (Vero E6 cells): No cytotoxicity; cells still alive (Vero E6 cells; African green monkey): approximately 50%; inhibition of cytopathic effect (SARS‐CoV [1]): strong inhibition
5 | [Hg+2] [Hg^2+] | – | effective | – | –
6 | [Mg+2] [Mg^2+] | – | did not inhibit | – | –
7 | [Mn+2] [Mn^2+] | – | did not inhibit | – | –
8 | [Ni+2] [Ni^2+] | – | did not inhibit | – | –
9 | CC(=O)[O][Hg][c]1ccccc1 [Phenylmercuric acetate] | competitive | – | 700 ± 300 | effect on detection of the viral spike protein (SARS‐CoV [2]): suppressed detection of the viral spike protein
10 | C[CH2][Hg][S]c1ccccc1C(=O)[O-].[Na+] [Thimerosal] | competitive | – | 2400 ± 200 | decrease of the detectable quantity of the spike protein (SARS‐CoV [2]): over 90%
11 | [Zn+2] [Zn^2+] | non‐competitively; also recorded: non‐competitive | effective | 1100 ± 400 | fold larger K i versus 1‐hydroxypyridine‐2‐thione zinc (SARS‐CoV 3CL protease): 6 fold
12 | O=C(Nc1ccc([N+](=O)[O-])cc1Cl)c1cc(Cl)ccc1O [niclosamide, Niclosamide] | – | not indicative of any inhibitory effect | – | –

Source: paper PMC7134601 (Febs Letters, 2004)
